Measurements as given in publication PMC12024213, “Mechanism Insight of Cell Death Signaling by Thymol Derivatives on Trypanosomatidae Protozoan Parasites” (Antibiotics, 2025).
Where two headings read alike, the source gives them in different places.

Key:
[1] = alamarBlue assay on T. cruzi epimastigotes; format: cell-based, Trypanosoma cruzi; conditions: mouse; CC50 J774.A1 / IC50 T. cruzi epimastigotes; read-out: Selectivity Trypanosoma SI (CC50/IC50)
Description: (§1) In a 96-well plate, a serial dilution of the tested derivatives was performed in liver infusion tryptose medium supplemented with 10% heat inactivated fetal bovine serum. Later, 100 µL of 5 × 10^5 cells/mL of epimastigotes was added to each well. Afterwards, 20 µL of alamarBlue® was added to each well, and the plate was maintained at 26 °C for 72 h.
(§2) Cytotoxicity effect of the tested derivatives was conducted using macrophages of the murine cell line J774.A1 (American Type Culture Collection #TIB-67, city, country), as previously described. The cells were maintained in DMEM at 37 °C in a 5% CO2 humidified incubator. All the plates containing alamarBlue® were analyzed using a plate reader EnSpire Multimode Plate Reader® at excitation and emission wavelengths of 570 and 585 nm, respectively (PerkinElmer, ThermoFisher Scientific, Madrid, Spain). The IC50 (concentrations able to inhibit 50% of parasites), IC90 (concentrations able to inhibit 90% of parasites), and CC50 (concentration able to inhibit 50% of murine macrophages) values were determined for each compound by nonlinear regression using GraphPad software.

T. cruzi epimastigotes [2] = test: alamarBlue assay on T. cruzi epimastigotes; format: cell-based, Trypanosoma cruzi; conditions: Trypanosoma cruzi
Description: as §1, §2

[3] = Intramacrophagic stage assay, L. amazonensis in J774.A1 macrophages; format: cell-based, Leishmania amazonensis; conditions: mouse; CC50 J774.A1 / IC50 intracellular L. amazonensis; read-out: Selectivity Leishmania SI (CC50/IC50)
Description: (§3) Briefly, in a 96-well plate, macrophages from the J774.A1 cell line were seeded at a final concentration of 2 × 10^5 cells/mL in Dulbecco’s Modified Eagle Medium (DMEM) and maintained at 37 °C in a 5% CO2 atmosphere until fully adhesion. […] After infection, plates were washed using DMEM to eliminate external parasites. Subsequently, infected macrophages were treated with different concentrations of active compounds for 24 h. Later, macrophages were lysed using 30 μL of medium, Schneider for Leishmania, and in liver infusion tryptose for Trypanosoma, containing 0.05% of sodium dodecyl sulfate (SDS) for 30 s under agitation. Afterwards, 170 μL of the appropriated medium was derivatives added to each well to give a final volume of 200 μL. Subsequently, 10% of alamarBlue® was added into each well and the plate was incubated at 26 °C for 72 h. Cytotoxicity effect of the tested derivatives was conducted using macrophages of the murine cell line J774.A1 (American Type Culture Collection #TIB-67, city, country), as previously described. The cells were maintained in DMEM at 37 °C in a 5% CO2 humidified incubator.

[4] = system: intramacrophage L. amazonensis; test: as above; format: cell-based, Leishmania amazonensis; conditions: Leishmania amazonensis; intramacrophage stage in J774.A1, 24 h treatment; mean ± SD; read-out: L. amazonensis Intracellular IC50
Description: as §3

[5] = Intramacrophagic stage assay, T. cruzi in J774.A1 macrophages; format: cell-based, Trypanosoma cruzi; conditions: mouse; CC50 J774.A1 / IC50 intracellular T. cruzi; read-out: Selectivity Trypanosoma SI (CC50/IC50)
Description: (§4) Briefly, in a 96-well plate, macrophages from the J774.A1 cell line were seeded at a final concentration of 2 × 10^5 cells/mL in Dulbecco’s Modified Eagle Medium (DMEM) and maintained at 37 °C in a 5% CO2 atmosphere until fully adhesion. Cells were infected either with L. amazonensis promastigotes (at a ratio of 1:10) or epimastigotes of T. cruzi (at a ratio of 1:7) (macrophage: parasite) and incubated at 37 °C in 5% CO2 for 24 h for Leishmania and 48 h for Trypanosoma. After infection, plates were washed using DMEM to eliminate external parasites. Subsequently, infected macrophages were treated with different concentrations of active compounds for 24 h. Later, macrophages were lysed using 30 μL of medium, Schneider for Leishmania, and in liver infusion tryptose for Trypanosoma, containing 0.05% of sodium dodecyl sulfate (SDS) for 30 s under agitation. Afterwards, 170 μL of the appropriated medium was derivatives added to each well to give a final volume of 200 μL. Subsequently, 10% of alamarBlue® was added into each well and the plate was incubated at 26 °C for 72 h.
as §2

intramacrophage T. cruzi = test: as above; format: cell-based, Trypanosoma cruzi; conditions: Trypanosoma cruzi; intramacrophage stage in J774.A1, 24 h treatment; mean ± SD; read-out: T. cruzi Intracellular IC50
Description: as §4, §2

[6] = Cytotoxicity assay on murine macrophages (alamarBlue); format: cell-based; conditions: mouse, J774.A1 macrophage cell line, mean ± SD
Description: as §2

L. amazonensis = test: ATP level, CellTiter-Glo, L. amazonensis; format: cell-based, Leishmania amazonensis; conditions: IC90, 24 h, luminescence
Description: (§5) The adenosine triphosphate (ATP) level was measured using the CellTiter-Glo Luminescent Cell Viability Assay (Promega, Madrid, Spain). The mitochondria in which most cellular oxidations occur is considered the main source of cell’s ATP; any damage and/or malfunction of this organelle generate the depletion of ATP levels.

T. cruzi = test: ATP level, CellTiter-Glo, T. cruzi; format: cell-based, Trypanosoma cruzi; conditions: IC90, 24 h, luminescence
Description: as §5

[7] = system: L. amazonensis promastigotes; test: Hoechst/PI double stain, chromatin condensation, L. amazonensis; format: cell-based, Leishmania amazonensis; conditions: IC90, 24 h
Excerpt: (§6) To identify the type of cell death occurring in both kinetoplastids after treatment, Hoechst 33342 and propidium iodide (PI) dyes were used. Even though both dyes are DNA affine, the Hoechst 33342 stain is cell permeable and known to distinguish apoptotic cells from healthy or necrotic cells, whereas the PI is cell impermeable and stain dead cells as late apoptotic or necrosis. After treatment, three types of staining could be observed: blue fluorescence for cells undergoing apoptosis, violet color as the merge of blue and red fluorescence for late apoptotic cells, and red color for dead cells.

T. cruzi epimastigotes [8] = test: Hoechst/PI double stain, chromatin condensation, T. cruzi; format: cell-based, Trypanosoma cruzi; conditions: IC90, 24 h
Excerpt: as §6

[9] = system: L. amazonensis promastigotes; test: Monodansylcadaverine staining of autophagic vacuoles, L. amazonensis; format: cell-based, Leishmania amazonensis; conditions: 24 h treatment, confocal microscopy
Description: (§7) The present method consists of staining the autophagic vacuoles with the treated cells by ion trapping and specific interactions with the vesicle membrane lipids. The experiment was carried out by following the manufacturer’s recommendations, and as described previously. After 24 h of incubation, cells were stained with MDC reagent at 5 mM and incubated at 26 °C for 30 min in µ-Slide 8 (Ibidi, Gräfelfing, Germany). Later, the cells were washed with PBS and observed with Leica DMI 4000 B.

T. cruzi epimastigotes [10] = test: Monodansylcadaverine staining of autophagic vacuoles, T. cruzi; format: cell-based, Trypanosoma cruzi; conditions: 24 h treatment, confocal microscopy
Description: as §7

[11] = 72 h, epimastigotes, alamarBlue, 72 h at 26 °C, mean ± SD, triplicates, read-out: T. cruzi Epimastigote IC50

Structure (SMILES) | selectivity ratio [1] | IC50 (T. cruzi epimastigotes [2]; [11]) | selectivity ratio [3] | IC50 [4] | selectivity ratio [5] | IC50 (intramacrophage T. cruzi) | CC50 [6] | decrease of ATP production compared to negative control (L. amazonensis) | decrease of ATP production compared to negative control (T. cruzi) | chromatin condensation (Hoechst/PI staining) [7] | chromatin condensation (Hoechst/PI staining) (T. cruzi epimastigotes [8]) | autophagic vacuoles (MDC staining) [9] | autophagic vacuoles (MDC staining) (T. cruzi epimastigotes [10]) | IC50 (T. cruzi epimastigotes [2]; abstract, stage not stated, read-out: IC50 against T. cruzi (abstract))
COc1ccc(C(=O)Oc2cc(C)ccc2C(C)C)cc1 [Derivative 9, thymyl anysoate] | > 11.2 | 26.8 ± 2.2 µM | > 19.7 | 15.2 ± 0.8 µM | > 33 | 9.1 ± 0.5 µM | > 300 µM | 84% | 65% | increasing the chromatin condensation | increasing the chromatin condensation | Induction of autophagy | Induction of autophagy | 
Cc1ccc(C(C)C)c(OC(=O)c2ccccn2)c1 [Derivative 10, thymyl picolinate] | 7.2 | 35.5 ± 2.5 µM | 10.1 | 25.3 ± 0.8 µM | 8.8 | 28.8 ± 5.6 µM | 254.5 ± 1.9 µM | 67% | 50% | increasing the chromatin condensation | increasing the chromatin condensation | Induction of autophagy | Induction of autophagy | 25.2 µM
